Experimental data as given in PMC10342010, “Djakonoviosides A, A1, A2, B1–B4 — Triterpene Monosulfated Tetra- and Pentaosides from the Sea Cucumber Cucumaria djakonovi: The First Finding of a Hemiketal Fragment in the Aglycones; Activity against Human Breast Cancer Cell Lines” (International Journal of Molecular Sciences, 2023).
Where two headings read alike, the source gives them in different places.

Tests used:
T-47D cells = test: Cytotoxic activity (MTT assay); format: cell-based, human; conditions: T-47D, MTT, 24 h; read-out: Cytotoxicity, IC50 T-47D
Description: (§1) After incubation, the glycosides with medium were replaced by 100 μL of fresh medium. Then, 10 μL of MTT (3-(4,5-dimethylthiazol-2-yl)-2,5-diphenyltetrazolium bromide) (Sigma-Aldrich, St. Louis, MO, USA) stock solution (5 mg/mL) was added to each well, followed by incubation of the microplate for 4 h. After this procedure, 100 μL of SDS-HCl solution (1 g SDS/10 mL d-H2O/17 μ[…] HCl) was added to each well and incubated for 18 h. The absorbance of the converted dye formazan was determined with a Multiskan FC microplate photometer (Thermo Fisher Scientific, Waltham, MA, USA) at 570 nm.

human erythrocytes = test: Hemolytic activity; format: cell-based; conditions: 1 h incubation at 37 °C, 50% hemolysis
Description: Erythrocytes were obtained from human blood (AB(IV) Rh+) by centrifugation with phosphate-buffered saline (PBS) (pH 7.4) at 4 °C for 5 min by 450 g on a LABOFUGE 400R centrifuge (Heraeus, Hanau, Germany) three times. Then, the erythrocytes residue was resuspended in ice cold phosphate saline buffer (pH 7.4) to a final optical density of 1.5 at 700 nm and kept on ice. For the hemolytic assay, 180 µL of erythrocyte suspension was mixed with 20 µL of test compound solution, as well as control, chitonoidoside L [33], in V-bottom 96-well plates. After 1 h of incubation at 37 °C, the plates were exposed to centrifugation for 10 min at 900 g in a laboratory LMC-3000 centrifuge (Biosan, Riga, Latvia). Then, 100 µL of supernatant was carefully decanted and transferred into new flat plates. The values of the lysis of the erythrocytes were found by measuring the concentration of hemoglobin in the supernatant with a Multiskan FC microplate photometer (Thermo Fisher Scientific, Waltham, MA, USA); λ = 570 nm. […] All the experiments were carried out in triple repetitions; p < 0.01.

HL-60 cells = test: Cytotoxic activity (MTS assay); format: cell-based, human; conditions: HL-60, MTS, 24 h; read-out: Cytotoxicity, IC50 HL-60
Description: Then, the cells were incubated with 10 µL MTS ([3-(4,5-dimethylthiazol-2-yl)-5-(3-carboxymethoxyphenyl)-2-(4-sulfophenyl)-2H-tetrazolium) for 4 h, and the absorbance in each well was determined at 490/630 nm with a PHERA star FS plate reader (BMG Labtech, Ortenberg, Germany). The experiments were conducted in triplicate.

MDA-MB-231 cells [1] = test: Wound scratch migration assay; format: cell-based, human; conditions: MDA-MB-231, 0.05 µM, 24 h
Description: To analyze the influence of the tested compounds on tumor cell migration, MDA-MB-231 cells attached to the plate’s plastic bottom were separated by a silicone insert from special migration plates (Culture-insert 2 Well 24, ibiTreat); then, the insert was removed, leaving a gap of 500 ± 50 μm (according to the manufacturer’s data) between the cells. The cells were washed twice by PBS to remove cell debris and floating cells and loaded with a fluorescent probe, a (5,6)-carboxyfluorescein succinimidyl ester (CFDA SE) dye (LumiTrace CFDA SE kit, Lumiprobe, Moscow, Russia). The initial solution of CFDA SE at a concentration of 5 mM in DMSO was dissolved in PBS to prepare a 10 μM solution and was added to the cells for 5 min at 37 °C; then, the cells were washed twice with PBS, and fresh culture medium was added. After that, the cells were treated with various concentrations of glycosides and left for 8 and 24 h. Cells treated with culture medium only were used as control. Cell migration into the wound area was then observed under a fluorescence microscope (MIB-2-FL, LOMO, Saint Peterburg, Russia) with an objective ×10 magnification.

HEK293 cells = test: Cytotoxic activity (MTT assay); format: cell-based, human; conditions: HEK293, MTT, 24 h; read-out: Cytotoxicity, IC50 HEK293
Description: as §1

MCF-7 cells = test: Cytotoxic activity (MTT assay); format: cell-based, human; conditions: MCF-7, MTT, 24 h; read-out: Cytotoxicity, IC50 MCF-7
Description: as §1

MDA-MB-231 cells [2] = test: Cytotoxic activity (MTT assay); format: cell-based, human
Description: as §1

MDA-MB-231 cells [3] = test: Colony formation (clonogenic) assay; format: cell-based, human; conditions: MDA-MB-231, concentration 0.5 μM
Description: The influence of glycosides on the proliferation of MDA-MB-231 cells was analyzed by clonogenic assay. Briefly, MDA-MB-231 cells were cultured on 6-well plates at a density of 1 × 10^3 cells per well in control media (MEM media, 10% FBS, 10,000 U/mL of penicillin and 10,000 μg/mL of streptomycin) or in media supplemented with different concentrations of glycosides. Cells were incubated for one week at 37 °C with 5% CO2 until the cells in the control plates formed colonies that were visible to the eye and were of a substantial size (at least 50 cells per colony). For fixation and staining, the media were removed and the cells were washed twice with PBS. The colonies were fixed with methanol for 25 min, then washed with PBS and stained with 0.5% crystal violet solution for 25 min at room temperature. The plates were then washed with water and air dried.

COC1C(O)C(CO)OC(OC2C(O)COC(OC3C(C)OC(OC4C(OC5CCC6(C)C7CCC89C(=O)OC(C)(CC(=O)CC(C)C)C8C(OC(C)=O)CC9(C)C7=CCC6C5(C)C)OCC(OS(=O)(=O)[O-])C4O)C(O)C3O)C2O)C1O.[Na+] (centres unmarked) [okhotoside A1-1]
IC50 (T-47D cells): 8460 ± 650 nM
ED50, Erythrocytes (human erythrocytes): 750 ± 90 nM
IC50 (HL-60 cells): 2520 ± 260 nM
Inhibition of migration in comparison with control (MDA-MB-231 cells [1]): 74.76 ± 4.41%
IC50 (HEK293 cells): 3170 ± 700 nM
IC50 (MCF-7 cells): 8340 ± 120 nM
EC50 (MDA-MB-231 cells [2]; MDA-MB-231, 24 h, read-out: Cytotoxic effect EC50 on MDA-MB-231, 24 h): 2340 nM
EC50 (MDA-MB-231 cells [2]; MDA-MB-231, 48 h, read-out: Cytotoxic effect EC50 on MDA-MB-231, 48 h): 2050 nM
EC50 (MDA-MB-231 cells [2]; MDA-MB-231, 72 h, read-out: Cytotoxic effect EC50 on MDA-MB-231, 72 h): 1730 nM
IC50 (MDA-MB-231 cells [2]; MDA-MB-231, MTT, 24 h, read-out: Cytotoxicity, IC50 MDA-MB-231): 2340 ± 530 nM
Inhibition of formation and growth of colonies, % of the control (MDA-MB-231 cells [3]): 70.76 ± 0.13%
